Test results from patent publication US8680272B2, “3-arylethynyl substituted quinazolinone compounds” (Council of Scientific & Industrial Research, priority 2011, dated 2014).

Experiments:
SR = experiment: Anticancer activity, SRB assay, leukemia cell line SR; format: cell-based; conditions: Homo sapiens, 48 h continuous drug exposure, read-out: Growth Inhibition GI50
Method: (§1) Some of biological activity studies were carried out at the National Cancer Institute (NCI), Maryland, USA.
(§2) The compounds were evaluated for anticancer activity against sixty human cancer cells derived from nine cancer types (leukemia cell line, non-small-cell lung cell line, colon cell line, CNS cell line, melanoma cell line, ovarian cell line, prostate cell line, renal cell line and breast cancer cell line) as shown in Table 1. For each compound, dose response curves for each cell line were measured at a minimum of five concentrations at 10 fold dilutions. A protocol of 48 h continuous drug exposure was used and a sulforhodamine B (SRB) protein assay was used to estimate cell viability or growth.

NCI-H226 = experiment: Anticancer activity, SRB assay, non-small lung cell line NCI-H226; format: cell-based, human; conditions: Non-small lung NCl-H226, 48 h continuous drug exposure, —^b means GI50 values not attained at the concentrations used; for GI50: Homo sapiens, NCI-H226, read-out: Growth Inhibition GI50
Method: as §1, §2

NCI-H460 = experiment: Anticancer activity, SRB assay, non-small lung cell line NCI-H460; format: cell-based; conditions: Homo sapiens, Non-small lung NCl-H460, 48 h continuous drug exposure, read-out: Growth Inhibition GI50
Method: as §1, §2

NCI-H522 = experiment: Anticancer activity, SRB assay, non-small lung cell line NCI-H522; format: cell-based, human; conditions: Non-small lung NCl-H522, 48 h continuous drug exposure, —^b means GI50 values not attained at the concentrations used; for GI50: Homo sapiens, NCI-H522, read-out: Growth Inhibition GI50
Method: as §1, §2

COLO 205 = experiment: Anticancer activity, SRB assay, colon cell line COLO 205; format: cell-based; conditions: Homo sapiens; Colon COLO 205; 48 h continuous drug exposure; read-out: Growth Inhibition GI50
Method: as §1, §2

HCC-2998 = experiment: Anticancer activity, SRB assay, colon cell line HCC-2998; format: cell-based, human; conditions: Colon HCC-2998, 48 h continuous drug exposure, —^b means GI50 values not attained at the concentrations used; for GI50: Homo sapiens, read-out: Growth Inhibition GI50
Method: as §1, §2

HCT-116 = experiment: Anticancer activity, SRB assay, colon cell line HCT-116; format: cell-based; conditions: Homo sapiens; Colon HCT-116; 48 h continuous drug exposure; read-out: Growth Inhibition GI50
Method: as §1, §2

HCT-15 = experiment: Anticancer activity, SRB assay, colon cell line HCT-15; format: cell-based; conditions: Homo sapiens; Colon HCT-15; 48 h continuous drug exposure; read-out: Growth Inhibition GI50
Method: as §1, §2

SW-620 = experiment: Anticancer activity, SRB assay, colon cell line SW-620; format: cell-based; conditions: Homo sapiens; Colon SW-620; 48 h continuous drug exposure; read-out: Growth Inhibition GI50
Method: as §1, §2

SF-539 = experiment: Anticancer activity, SRB assay, CNS cell line SF-539; format: cell-based, human; conditions: CNS SF-539, 48 h continuous drug exposure, —^b means GI50 values not attained at the concentrations used; for GI50: Homo sapiens, read-out: Growth Inhibition GI50
Method: as §1, §2

IGROV1 = experiment: Anticancer activity, SRB assay, ovarian cell line IGROV1; format: cell-based, human; conditions: —^b means GI50 values not attained at the concentrations used; for GI50: Homo sapiens, IGROV-1, 48 h continuous drug exposure, read-out: Growth Inhibition GI50
Method: as §1, §2

OVCAR-3 = experiment: Anticancer activity, SRB assay, ovarian cell line OVCAR-3; format: cell-based; conditions: Homo sapiens; Ovarian OVCAR-3; 48 h continuous drug exposure; read-out: Growth Inhibition GI50
Method: as §1, §2

OVCAR-4 = experiment: Anticancer activity, SRB assay, ovarian cell line OVCAR-4; format: cell-based, human; conditions: Ovarian OVCAR-4, 48 h continuous drug exposure, —^b means GI50 values not attained at the concentrations used; for GI50: Homo sapiens, read-out: Growth Inhibition GI50
Method: as §1, §2

OVCAR-8 = experiment: Anticancer activity, SRB assay, ovarian cell line OVCAR-8; format: cell-based, human; conditions: Ovarian OVCAR-8, 48 h continuous drug exposure, —^b means GI50 values not attained at the concentrations used; for GI50: Homo sapiens, read-out: Growth Inhibition GI50
Method: as §1, §2

NCI/ADR-RES = experiment: Anticancer activity, SRB assay, ovarian cell line NCI/ADR-RES; format: cell-based, human; conditions: Ovarian NCl/ADR-RES, 48 h continuous drug exposure, —^b means GI50 values not attained at the concentrations used; for GI50: Homo sapiens, NCI/ADR-RES, read-out: Growth Inhibition GI50
Method: as §1, §2

ACHN = experiment: Anticancer activity, SRB assay, renal cell line ACHN; format: cell-based, human; conditions: 48 h continuous drug exposure, —^b means GI50 values not attained at the concentrations used; for GI50: Homo sapiens, read-out: Growth Inhibition GI50
Method: as §1, §2

CAKI-1 = experiment: Anticancer activity, SRB assay, renal cell line CAKI-1; format: cell-based; conditions: Homo sapiens; Renal CAKI-1; 48 h continuous drug exposure; read-out: Growth Inhibition GI50
Method: as §1, §2

SN12C = experiment: Anticancer activity, SRB assay, renal cell line SN12C; format: cell-based, human; conditions: 48 h continuous drug exposure, —^b means GI50 values not attained at the concentrations used; for GI50: Homo sapiens, read-out: Growth Inhibition GI50
Method: as §1, §2

PC-3 = experiment: Anticancer activity, SRB assay, prostate cell line PC-3; format: cell-based, human; conditions: Prostate PC-3, 48 h continuous drug exposure, —^b means GI50 values not attained at the concentrations used; for GI50: Homo sapiens, read-out: Growth Inhibition GI50
Method: as §1, §2

DU-145 = experiment: Anticancer activity, SRB assay, prostate cell line DU-145; format: cell-based, human; conditions: Prostate DU-145, 48 h continuous drug exposure, —^b means GI50 values not attained at the concentrations used; for GI50: Homo sapiens, read-out: Growth Inhibition GI50
Method: as §1, §2

MDA-MB-231/ATCC = experiment: Anticancer activity, SRB assay, breast cell line MDA-MB-231/ATCC; format: cell-based; conditions: Homo sapiens; Breast MDA-MB-231/ATCC; 48 h continuous drug exposure; read-out: Growth Inhibition GI50
Method: as §1, §2

HS 578T = experiment: Anticancer activity, SRB assay, breast cell line HS 578T; format: cell-based, human; conditions: Breast HS 578T, 48 h continuous drug exposure, —^b means GI50 values not attained at the concentrations used; for GI50: Homo sapiens, read-out: Growth Inhibition GI50
Method: as §1, §2

T-47D = experiment: Anticancer activity, SRB assay, breast cell line T-47D; format: cell-based, human; conditions: Breast T-47D, 48 h continuous drug exposure, —^b means GI50 values not attained at the concentrations used; for GI50: Homo sapiens, T47D, read-out: Growth Inhibition GI50
Method: as §1, §2

MALME-3M = experiment: Anticancer activity, SRB assay, melanoma cell line MALME-3M; format: cell-based; conditions: Homo sapiens; Melanoma MALME-3M; 48 h continuous drug exposure; read-out: Growth Inhibition GI50
Method: as §1, §2

SK-MEL-28 = experiment: Anticancer activity, SRB assay, melanoma cell line SK-MEL-28; format: cell-based, human; conditions: Melanoma SK-MEL-28, 48 h continuous drug exposure, —^b means GI50 values not attained at the concentrations used; for GI50: Homo sapiens, read-out: Growth Inhibition GI50
Method: as §1, §2

UACC-257 = experiment: Anticancer activity, SRB assay, melanoma cell line UACC-257; format: cell-based; conditions: Homo sapiens; Melanoma UACC-257; 48 h continuous drug exposure; read-out: Growth Inhibition GI50
Method: as §1, §2

[1] = Anticancer activity, SRB assay, melanoma panel; format: cell-based, human; conditions: Homo sapiens; nine melanoma cancer cell line; exposure period of at least 48 h; read-out: GI50 (range over the panel)
Method: as §1, §2

[2] = tested on: nine melanoma cancer cell line (LOX IMVI, MALME-3M, M14, MDA-MB-435, SK-MEL-2, SK-MEL-28, SK-MEL-5, UACC-257 and UACC-62); experiment: Anticancer activity, SRB assay, melanoma panel; format: cell-based, human; conditions: Melanoma; for mean graph midpoint values (MG_MID) of log10 TGI (Log10TGI50): log value of concentration of the compound resulting in total inhibition of net cell growth; for mean graph midpoint values (MG_MID) of Log10LC50: log value of the concentration of compounds leading to 50% net cell death; for mean graph midpoint values (MG_MID) of Log10GI50: log values of concentration in mol/L causing 50% inhibition of net cell growth
Method: as §1, §2

| Structure (SMILES) | GI50 (SR) | GI50 (NCI-H226) | GI50 (NCI-H460) | GI50 (NCI-H522) | GI50 (COLO 205) | GI50 (HCC-2998) | GI50 (HCT-116) | GI50 (HCT-15) | GI50 (SW-620) | GI50 (SF-539) | GI50 (IGROV1) | GI50 (OVCAR-3) | GI50 (CAKI-1) | GI50 (MDA-MB-231/ATCC) | GI50 (MALME-3M) | GI50 (UACC-257) | GI50 [1] | mean graph midpoint values (MG_MID) of log10 TGI (Log10TGI50) [2] | mean graph midpoint values (MG_MID) of Log10LC50 [2] | mean graph midpoint values (MG_MID) of Log10GI50 [2] | further results |
| --- | --- | --- | --- | --- | --- | --- | --- | --- | --- | --- | --- | --- | --- | --- | --- | --- | --- | --- | --- | --- | --- |
| Cc1cc(C#Cc2ccccc2)ccc1-n1c(/C=C/c2ccc(O)cc2)nc2ccccc2c1=O [Compound 4b, (E)-2-(4-Hydroxystyryl)-3-(2-methyl-4-(phenylethynyl)phenyl)quinazolin-4(3H)-one] | 2450 nM | 3990 nM | 2220 nM | 2260 nM | 1990 nM | 2350 nM | 2660 nM | 2500 nM | 4080 nM | 5650 nM | 20600 nM | 3600 nM | 3300 nM | 3890 nM | 2120 nM | 4180 nM | 1770 to 4540 nM | −4.79 | −4.16 | −5.54 mol/L | GI50 (OVCAR-4): 3170 nM; GI50 (OVCAR-8): 3980 nM; GI50 (NCI/ADR-RES): 3090 nM; GI50 (ACHN): 2460 nM; GI50 (SN12C): 3770 nM; GI50 (PC-3): 3240 nM; GI50 (DU-145): 4870 nM; GI50 (HS 578T): 2480 nM; GI50 (T-47D): 2020 nM; GI50 (SK-MEL-28): 4540 nM |
| Cc1cc(C#Cc2ccccc2)ccc1-n1c(/C=C/c2cc(O)ccc2O)nc2ccccc2c1=O [Compound 4c, (E)-2-(2,5-Dihydroxystyryl)-3-(2-methyl-4-(phenylethynyl)phenyl)quinazolin-4(3H)-one] | 1100 nM | 1520 nM | 1570 nM | 1290 nM | 1480 nM | 1360 nM | 1460 nM | 1030 nM | 1710 nM | 1600 nM | 2450 nM | 1490 nM | 2150 nM | 1560 nM | 1500 nM | 1560 nM | 1350 to 1670 nM | −5.52 | −5.22 | −5.83 mol/L | GI50 (OVCAR-4): 2400 nM; GI50 (OVCAR-8): 1940 nM; GI50 (NCI/ADR-RES): 2060 nM; GI50 (ACHN): 1440 nM; GI50 (SN12C): 1620 nM; GI50 (PC-3): 2190 nM; GI50 (DU-145): 419 nM; GI50 (HS 578T): 1540 nM; GI50 (T-47D): 1140 nM; GI50 (SK-MEL-28): 1530 nM |
| COc1ccc2cc(C#Cc3ccc(-n4c(/C=C/c5cc(OC)c(OC)c(OC)c5)nc5ccccc5c4=O)c(C)c3)ccc2c1 [Compound 6l, (E)-3-(4-((6-Methoxynaphthalen-2-yl)ethynyl)-2-methylphenyl)-2-(3,4,5-trimethoxystyryl)quinazolin-4(3H)-one] | 395 nM |  | 2480 nM |  | 6960 nM |  | 3530 nM | 1220 nM | 17200 nM |  |  | 19300 nM | 4910 nM | 37000 nM | 42600 nM | 6240 nM | 1850 to 42600 nM | >−4.00 | >−4.00 | −4.79 mol/L | Growth Inhibition GI50 (NCI-H226): —^b; Growth Inhibition GI50 (NCI-H522): —^b; Growth Inhibition GI50 (HCC-2998): —^b; Growth Inhibition GI50 (SF-539): —^b; Growth Inhibition GI50 (IGROV1; 48 h continuous drug exposure): —^b; Growth Inhibition GI50 (OVCAR-4): —^b; Growth Inhibition GI50 (OVCAR-8): —^b; Growth Inhibition GI50 (NCI/ADR-RES): —^b; Growth Inhibition GI50 (ACHN): —^b; Growth Inhibition GI50 (SN12C): —^b; Growth Inhibition GI50 (PC-3): —^b; Growth Inhibition GI50 (DU-145): —^b; Growth Inhibition GI50 (HS 578T): —^b; Growth Inhibition GI50 (T-47D): —^b; Growth Inhibition GI50 (SK-MEL-28): —^b |
